Tests used:
menin protein = target: T1, menin protein (Homo sapiens, UniProt O00255); experiment: Fluorescence polarization (FP) competitive binding assay, menin binding affinity; conditions: FP competition with FAM-MM2 probe 2 nM, menin 4 nM, 30 minutes room temperature
T1 sequence (O00255 1-610): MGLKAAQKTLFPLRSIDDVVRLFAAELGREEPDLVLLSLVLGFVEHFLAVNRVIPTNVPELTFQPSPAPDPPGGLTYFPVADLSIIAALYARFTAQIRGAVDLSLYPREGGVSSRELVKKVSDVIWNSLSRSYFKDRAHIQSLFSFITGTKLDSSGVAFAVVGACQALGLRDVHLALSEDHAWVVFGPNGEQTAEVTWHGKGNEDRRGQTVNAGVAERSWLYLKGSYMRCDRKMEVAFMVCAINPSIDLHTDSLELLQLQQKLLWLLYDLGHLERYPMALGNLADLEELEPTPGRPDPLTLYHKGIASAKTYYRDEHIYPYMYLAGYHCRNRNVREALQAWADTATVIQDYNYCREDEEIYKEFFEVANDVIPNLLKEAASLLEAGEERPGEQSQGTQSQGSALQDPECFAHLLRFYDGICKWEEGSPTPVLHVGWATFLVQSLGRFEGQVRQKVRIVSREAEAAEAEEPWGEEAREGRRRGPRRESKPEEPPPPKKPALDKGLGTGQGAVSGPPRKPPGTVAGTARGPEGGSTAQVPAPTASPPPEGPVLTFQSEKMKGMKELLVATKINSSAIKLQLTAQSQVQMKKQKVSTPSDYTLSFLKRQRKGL
How it was run: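 Competitive FP with FAM-labeled MLL1 peptide probe FAM-MM2 (2 nM) and menin (4 nM) in PBS, 0.02% bovine γ-globulin, 4% DMSO, 0.01% Triton X-100. After 30 min at room temperature, mP read at 485/530 nm; IC50 from nonlinear regression against probe-only and complex-only controls.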

MOLM13 = experiment: 7-day proliferation assay (WST-8), cell growth inhibition; assay type: cell-based; conditions: Homo sapiens, MOLM-13, 168 h, MOLM13 cells, 7 days
How it was run: (§1)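 Cells seeded at 2,000-3,000/well were exposed to serially diluted compound for 7 days at 37° C., 5% CO2. Viability was read by WST-8 absorbance at 450 nm after 1-2 h color development; readings normalized to DMSO-treated cells, IC50 by four-parameter nonlinear regression.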

MV4-11 = experiment: as above; assay type: cell-based; conditions: Homo sapiens, MV4-11, 168 h, MV4-11 cells, 7 days
How it was run: as §1

Structure (SMILES) | IC50 (menin protein) [µM] | IC50 (MOLM13) [nM] | IC50 (MV4-11) [nM]
COC(=O)N[C@H]1CCC[C@@H]1[C@](CN1CCC1)(c1cccc(F)c1)C1CCN(CC2CN(c3ccc(S(=O)(=O)C4CN(C(=O)/C=C/CN5CC(F)(F)C5)C4)cc3)C2)CC1 [Cpd. No. 175] | 0.001 | < 10 | < 10
C=C(CN1CCOCC1)C(=O)N1CC(S(=O)(=O)c2ccc(N3CC(F)(CN4CCC([C@@](CN5CCC5)(c5cccc(F)c5)[C@H]5CCC[C@@H]5NC(=O)OC)CC4)C3)cc2)C1 [Cpd. No. 12, methyl ((1S,2R)-2-((S)-2-(azetidin-1-yl)-1-(1-((3-fluoro-1-(4-((1-(2-(morpholinomethyl)acryloyl)azetidin-3-yl)sulfonyl)phenyl)azetidin-3-yl)methyl)piperidin-4-yl)-1-(3-fluorophenyl)ethyl)cyclopentyl)carbamate] | 0.002 | < 100 | < 10
C=CC(=O)Nc1cccc(S(=O)(=O)c2ccc(N3CC(F)(CN4CCC([C@@](CN5CCC5)(c5cccc(F)c5)[C@H]5CCC[C@@H]5NC(=O)OC)CC4)C3)c(F)c2)c1 [compound 80] | 0.002 | < 50 | < 50
C=CC(=O)N1CCCC[C@@H](S(=O)(=O)c2ccc(N3CC(C)(CN4CCC([C@@](CN5CCC5)(c5cccc(F)c5)[C@H]5CCC[C@@H]5NC(=O)OC)CC4)C3)c(F)c2)C1 [compound 225] | 0.007 | < 100 | < 100
C=CC(=O)N1CCOC[C@@H](S(=O)(=O)c2ccc(N3CC(CN4CCC([C@@](CN5CCC5)(c5cccc(F)c5)[C@H]5CCC[C@@H]5NC(=O)OC)CC4)(OC)C3)c(F)c2)C1 [compound 230] | 0.005 | < 50 | < 50
C=CC(=O)N1CCOC[C@@H](S(=O)(=O)c2ccc(N3CC(CN4CCC([C@@](CN5CCC5)(c5cccc(F)c5)[C@H]5CCC[C@@H]5NC(=O)OC)CC4)C3)c(F)c2)C1 [compound 218] | 0.002 | < 1000 | < 50
COC(=O)N[C@H]1CCC[C@@H]1[C@](CN1CCC1)(c1cccc(F)c1)C1CCN(CC2CN(c3ccc(S(=O)(=O)C4CN(C(=O)/C=C/CN5CCC(C)(O)CC5)C4)cc3)C2)CC1 [compound 99] | 0.009 | < 100 | < 10
COC(=O)N[C@H]1CCC[C@@H]1[C@](CN1CCC1)(c1cccc(F)c1)C1CCN(CC2CN(c3ccc(S(=O)(=O)C4CN(C(=O)/C=C/CN5CC(F)C5)C4)cc3)C2)CC1 [Cpd. No. 174] | 0.002 | < 10 | < 10
COC(=O)N[C@H]1CCC[C@@H]1[C@](CN(C)C)(c1cccc(F)c1)C1CCN(CC2CN(c3ccc(S(=O)(=O)C4CN(C(=O)/C=C/CN(C)C)C4)cc3)C2)CC1 [Cpd. No. 2, methyl ((1S,2R)-2-((S)-2-(dimethylamino)-1-(1-((1-(4-((1-((E)-4-(dimethylamino)but-2-enoyl)azetidin-3-yl)sulfonyl)phenyl)azetidin-3-yl)methyl)piperidin-4-yl)-1-(3-fluorophenyl)ethyl)cyclopentyl)carbamate] | 0.005 | < 10 | < 10
COC(=O)N[C@H]1CCC[C@@H]1[C@](CN1CCC1)(c1cccc(F)c1)C1CCN(CC2(F)CN(c3ccc(S(=O)(=O)C4CN(C(=O)/C=C/CN(C)C)C4)cc3)C2)CC1 [Cpd. No. 7, methyl ((1S,2R)-2-((S)-2-(azetidin-1-yl)-1-(1-((1-(4-((1-((E)-4-(dimethylamino)but-2-enoyl)azetidin-3-yl)sulfonyl)phenyl)-3-fluoroazetidin-3-yl)methyl)piperidin-4-yl)-1-(3-fluorophenyl)ethyl)cyclopentyl)carbamate] | 0.002 | < 100 | < 10
COC(=O)N[C@H]1CCC[C@@H]1[C@](CN1CCCC1)(c1cccc(F)c1)C1CCN(CC2CN(c3ccc(S(=O)(=O)C4CN(C(=O)/C=C/CN(C)C)C4)cc3)C2)CC1 [Cpd. No. 3] | 0.002 | < 50 | < 50
C=C(CN1CCCCC1)C(=O)N1CC(S(=O)(=O)c2ccc(N3CC(CN4CCC([C@@](CN5CCC5)(c5cccc(F)c5)[C@H]5CCC[C@@H]5NC(=O)OC)CC4)C3)cc2)C1 [Cpd. No. 17, methyl ((1S,2R)-2-((S)-2-(azetidin-1-yl)-1-(3-fluorophenyl)-1-(1-((1-(4-((1-(2-(piperidin-1-ylmethyl)acryloyl)azetidin-3-yl)sulfonyl)phenyl)azetidin-3-yl)methyl)piperidin-4-yl)ethyl)cyclopentyl)carbamate] | 0.002 | < 100 | < 10
C=CC(=O)N1CCCC[C@@H](S(=O)(=O)c2ccc(N3CC(C)(CN4CCC([C@@](CN5CCC5)(c5cccc(F)c5)[C@H]5CCC[C@@H]5NC(=O)OC)CC4)C3)cc2)C1 [compound 222] | 0.004 | < 50 | < 50
C=CC(=O)N1CCOC[C@@H](S(=O)(=O)c2ccc(N3CC(C)(CN4CCC([C@@](CN5CCC5)(c5cccc(F)c5)[C@H]5CCC[C@@H]5NC(=O)OC)CC4)C3)c(F)c2)C1 [compound 217] | 0.002 | < 100 | < 10
COC(=O)N[C@H]1CCC[C@@H]1[C@](CN1CCC1)(c1cccc(F)c1)C1CCN(CC2(F)CN(c3ccc(S(=O)(=O)C4CCCN(C(=O)/C=C/CO)C4)cc3F)C2)CC1 (stereo partly shown) [compound 122] |  | < 100 | < 50
C=CC(=O)N1CCOC[C@@H](S(=O)(=O)c2ccc(N3CC(CN4CCC([C@@](Cn5ccnn5)(c5cccc(F)c5)[C@H]5CCC[C@@H]5NC(=O)OC)CC4)C3)c(F)c2)C1 [compound 182] |  | < 100 | < 10
C=CC(=O)Nc1cc(F)cc(S(=O)(=O)c2ccc(N3CC(F)(CN4CCC([C@@](CN5CCC5)(c5cccc(F)c5)[C@H]5CCC[C@@H]5NC(=O)OC)CC4)C3)cc2)c1 [compound 88] |  | < 50 | < 50
C=CC(=O)Nc1cccc(S(=O)(=O)c2ccc(N3CC(CN4CCC([C@@](CN5CCC5)(c5cccc(F)c5)[C@H]5CCC[C@@H]5NC(=O)OC)CC4)(OC)C3)cc2)c1 [compound 188] |  | < 10 | < 10
COC(=O)N[C@H]1CCC[C@@H]1[C@](CNC(C)=O)(c1cccc(F)c1)C1CCN(CC2CN(c3ccc(S(=O)(=O)C4CN(C(=O)/C=C/CN(C)C)C4)cc3)C2)CC1 [compound 128] |  | < 100 | < 10
C=CC(=O)N1CCc2c1cccc2S(=O)(=O)c1ccc(N2CC(F)(CN3CCC([C@@](CN4CCC4)(c4cccc(F)c4)[C@H]4CCC[C@@H]4NC(=O)OC)CC3)C2)c(F)c1 [compound 127] |  | < 500 | < 100
C=CC(=O)Nc1cncc(S(=O)(=O)c2ccc(N3CC(F)(CN4CCC([C@@](CN5CCC5)(c5cccc(F)c5)[C@H]5CCC[C@@H]5NC(=O)OC)CC4)C3)cc2)c1 [compound 83] |  | < 100 | < 10
C=CC(=O)Nc1cccc(S(=O)(=O)c2ccc(N3CC(F)(CN4CCC([C@@](CN5CCC5)(c5cccc(F)c5)[C@H]5CCC[C@@H]5NC(=O)OC)CC4)C3)cc2)c1 [compound 76] |  | < 50 | < 10
C=CC(=O)N1CCOCC(S(=O)(=O)c2ccc(N3CC(F)(CN4CCC([C@@](CN5CCC5)(c5cccc(F)c5)[C@H]5CCC[C@@H]5NC(=O)OC)CC4)C3)cc2)C1 (stereo partly shown) [compound 125] |  | < 50 | < 50
C=CC(=O)N1CCOC[C@H](S(=O)(=O)c2ccc(N3CC(C)(CN4CCC([C@@](CN5CCC5)(c5cccc(F)c5)[C@H]5CCC[C@@H]5NC(=O)OC)CC4)C3)cc2)C1 [compound 213] |  | < 100 | < 50
C=CC(=O)Nc1cc(OC)cc(S(=O)(=O)c2ccc(N3CC(F)(CN4CCC([C@@](CN5CCC5)(c5cccc(F)c5)[C@H]5CCC[C@@H]5NC(=O)OC)CC4)C3)c(F)c2)c1 [compound 91] |  | < 50 | < 50
C=CC(=O)Nc1cccc(S(=O)(=O)c2ccc(N3CC(CN4CCC([C@@](CN5CCC5)(c5cccc(F)c5)[C@H]5CCC[C@@H]5NC(=O)OC)CC4)(OC)C3)c(F)c2)c1 [compound 187] |  | < 10 | < 10
C=CC(=O)N1CCC[C@@H](S(=O)(=O)c2ccc(N3CC(CN4CCC([C@@](CN5CCC5)(c5cccc(F)c5)[C@H]5CCC[C@@H]5NC(=O)OC)CC4)C3)cc2CN2CC(F)C2)C1 [compound 208] |  | < 50 | < 50
C=CC(=O)N1CCOC[C@@H](S(=O)(=O)c2ccc(N3CC(F)(CN4CCC([C@@](Cn5ccnn5)(c5cccc(F)c5)[C@H]5CCC[C@@H]5NC(=O)OC)CC4)C3)c(F)c2)C1 [compound 184] |  | < 500 | < 500

Reference: patent publication US20210115018A1, “PIPERIDINE COMPOUNDS AS COVALENT MENIN INHIBITORS” (THE REGENTS OF THE UNIVERSITY OF MICHIGAN, priority 2018, published 2021)
